What was measured:
[1] = dissolution rate in water; assay type: physicochemical; settings: comparison of solid forms
[2] = accelerated stability test of solid forms at 50° C. for 6 months (European Pharmacopoeia); assay type: physicochemical; settings: for GSH / GSSG / SAG / Unknown impurities (single) / Unknown impurities (total): % area
Procedure: The stability of the various solid forms was tested as described in the European Pharmacopoeia (EP), by conducting accelerated stability tests at 50° C. for 6 months.

[3] = powder density / apparent density; assay type: physicochemical; settings: for Apparent density: product of the example after drying
[4] = heat and mechanical stress, conversion of one polymorph to the other; assay type: physicochemical; settings: heat and mechanical stresses
[5] = flowability of the powders; assay type: physicochemical; settings: comparison of crystalline forms
[6] = oral, seven healthy volunteers, doses of up to 3 g per dose; cited from earlier work
[7] = compared with GSH; cited from earlier work
[8] = tested on: fibroblasts originating from individuals suffering from a genetic glutathione synthetase deficiency; settings: addition to fibroblast cultures; cited from earlier work
[9] = tested on: cell levels of GSH impoverished by viral infections; settings: cells impoverished by viral infections, compared with GSH; cited from earlier work
human tumour cell lines = settings: some human tumour cell lines in vitro; cited from earlier work

Row | SMILES | SAG - assay value ([2]; 0 months) [%] | GSH ([2]; 0 months) [%] | GSSG ([2]; 0 months) [%] | SAG ([2]; 0 months) [%] | Unknown impurities (single) ([2]; 0 months) [%] | Unknown impurities (total) ([2]; 0 months) [%] | SAG - assay value ([2]; 1.5 months) [%] | GSH ([2]; 1.5 months) [%] | GSSG ([2]; 1.5 months) [%] | SAG ([2]; 1.5 months) [%] | Unknown impurities (single) ([2]; 1.5 months) [%] | Unknown impurities (total) ([2]; 1.5 months) [%] | SAG - assay value ([2]; 3 months) [%] | GSH ([2]; 3 months) [%] | GSSG ([2]; 3 months) [%] | SAG ([2]; 3 months) [%] | Unknown impurities (single) ([2]; 3 months) [%] | Unknown impurities (total) ([2]; 3 months) [%] | SAG - assay value ([2]; 4.5 months) [%] | GSH ([2]; 4.5 months) [%] | further results
1 | CC(=O)SC[C@H](NC(=O)CC[C@H](N)C(=O)O)C(=O)NCC(=O)O [Amorphous, S-acetyl glutathione] | 96.5 | 1.0 | 2.5 | 95.1 | 0.4 | 1.4 | 94.9 | 1.6 | 2.5 | 94.6 | 0.9 | 1.9 | 92.4 | 2.4 | 2.8 | 91.3 | 1.2 | 2.3 | 91.5 | 2.8 | dissolution rate ([1]; listed as amorphous form): dissolves more rapidly; GSSG ([2]; 4.5 months): 2.9%; SAG ([2]; 4.5 months): 90.4%; Unknown impurities (single) ([2]; 4.5 months): 1.3%; Unknown impurities (total) ([2]; 4.5 months): 2.7%; SAG - assay value ([2]; 6 months): 89.9%; GSH ([2]; 6 months): 2.5%; GSSG ([2]; 6 months): 3.9%; SAG ([2]; 6 months): 88.6%; Unknown impurities (single) ([2]; 6 months): 1.5%; Unknown impurities (total) ([2]; 6 months): 3.5%; stability of the solid form (comparison) ([2]; 6 months, data of Table 3): much less stable than the crystalline forms
2 | CC(=O)SC[C@H](NC(=O)CC[C@H](N)C(=O)O)C(=O)NCC(=O)O [Example 3, S-acetyl glutathione] |  |  |  |  |  |  |  |  |  |  |  |  |  |  |  |  |  |  |  |  | Apparent density [3]: 0.35 g/mL
3 | CC(=O)SC[C@H](NC(=O)CC[C@H](N)C(=O)O)C(=O)NCC(=O)O [Form A, S-acetyl glutathione] | 98.6 | 0.1 | 2.2 | 96.3 | 0.4 | 1.0 | 98.3 | 0.1 | 2.2 | 95.5 | 0.5 | 1.7 | 97.8 | 0.2 | 2.3 | 95.1 | 0.5 | 1.9 | 97.6 | 0.2 | conversion of one polymorph to the other [4]: not found; flowability of the powder [5]: better flowability; GSSG ([2]; 4.5 months): 2.4%; SAG ([2]; 4.5 months): 94.7%; Unknown impurities (single) ([2]; 4.5 months): 0.7%; Unknown impurities (total) ([2]; 4.5 months): 2.0%; SAG - assay value ([2]; 6 months): 97.4%; GSH ([2]; 6 months): 0.3%; GSSG ([2]; 6 months): 2.4%; SAG ([2]; 6 months): 94.4%; Unknown impurities (single) ([2]; 6 months): 0.9%; Unknown impurities (total) ([2]; 6 months): 2.0%; powder density [3]: 0.2 to 0.25 g/mL; Apparent density ([3]; listed as Example 1): 0.15 to 0.25 g/mL
4 | CC(=O)SC[C@H](NC(=O)CC[C@H](N)C(=O)O)C(=O)NCC(=O)O [Form B, S-acetyl glutathione] | 99.3 | 0.2 | 1.1 | 97.7 | 0.2 | 0.8 | 99.1 | 0.3 | 1.2 | 97.1 | 0.5 | 0.9 | 98.7 | 0.7 | 0.8 | 96.7 | 0.7 | 1.1 | 98.3 | 0.9 | conversion of one polymorph to the other [4]: not found; dissolution rate [1]: most rapid dissolution rate; GSSG ([2]; 4.5 months): 1.1%; SAG ([2]; 4.5 months): 96.0%; Unknown impurities (single) ([2]; 4.5 months): 0.7%; Unknown impurities (total) ([2]; 4.5 months): 1.3%; SAG - assay value ([2]; 6 months): 98.1%; GSH ([2]; 6 months): 1.0%; GSSG ([2]; 6 months): 0.9%; SAG ([2]; 6 months): 95.7%; Unknown impurities (single) ([2]; 6 months): 0.8%; Unknown impurities (total) ([2]; 6 months): 2.0%; powder density [3]: 0.4 g/mL; Apparent density ([3]; listed as Example 2): 0.25 to 0.40 g/mL
5 | N[C@@H](CCC(=O)N[C@@H](CS)C(=O)NCC(=O)O)C(=O)O [GSH, γ-L-glutamyl-L-cysteinylglycine] |  |  |  |  |  |  |  |  |  |  |  |  |  |  |  |  |  |  |  |  | increase in the blood levels of glutathione, cysteine and glutamate [6]: no significant increases
6 | CC(=O)SC[C@H](NC(=O)CC[C@H](N)C(=O)O)C(=O)NCC(=O)O [SAG, S-acetyl glutathione] |  |  |  |  |  |  |  |  |  |  |  |  |  |  |  |  |  |  |  |  | stability in the plasma [7]: more stable in the plasma; replenishment of the intracellular level of GSH [8]: able to replenish the intracellular level of GSH effectively; replenishing the cell levels of GSH [9]: more effective than GSH; induction of apoptosis (non-GSH-dependent activity) (human tumour cell lines): induces apoptosis

Reference: patent US9834579B2, “Crystalline forms of s-acetyl glutathione, their preparations and uses in pharmaceutical and nutraceutical formulations” (Gnosis S.p.A., priority 2013, dated 2017)
